Laboratory results reported in patent US8987287B2, “Spirocyclic morphinans and their use” (Purdue Pharma L.P., priority 2012, dated 2015).

Key:
[1] = biological target: μ-opioid receptor (Homo sapiens (Human), UniProt P35372); test: μ-opioid receptor [35S]GTPγS functional assay, HEK-293 or CHO cells; assay type: biochemical; conditions: for Emax: relative to DAMGO, HEK-293 or CHO cells
Procedure: μ-Opioid Receptor Functional Assay Procedures: [^35S]GTPγS functional assays were conducted using freshly thawed μ-receptor membranes prepared in-house from a cell line expressing recombinant μ opioid receptor in a HEK-293, CHO or U-2 OS cell background, or purchased from a commercial source (Perkin Elmer, Shelton, Conn.; or DiscovRx, Fremont, Calif.). Assay reactions were prepared by sequentially adding the following reagents to binding buffer (100 mM NaCl, 10 mM MgCl2, 20 mM HEPES, pH 7.4) on ice (final concentrations indicated): membrane protein (0.026 mg/mL), saponin ([…]), GDP ([…]) and [^35S]GTPγS (0.20 nM; Perkin Elmer, Shelton, Conn.). The prepared membrane solution (190 μl/well) was transferred to 96-shallow well polypropylene plates containing 10 μl of 20× concentrated stock solutions of the agonist [D-Ala^2, N-methyl-Phe^4 Gly-ol^5]-enkephalin (DAMGO) prepared in dimethyl sulfoxide (DMSO). Plates were incubated for 30 min at about 25° C. with shaking. Reactions were terminated by rapid filtration onto 96-well Unifilter GF/B filter plates (Perkin Elmer, Shelton, Conn.) using a 96-well tissue harvester (Perkin Elmer, Shelton, Conn.) followed by three filtration washes with 200 μl of ice-cold wash buffer (10 mM NaH2PO4, 10 mM Na2HPO4, pH 7.4). Filter plates were subsequently dried at 50° C. for 2-3 hours. BetaScint scintillation cocktail (Perkin Elmer, Shelton, Conn.) was added (50 μl/well) and plates were counted using a Packard Top-Count for 1 min/well. Data were analyzed using the sigmoidal dose-response curve fitting functions in GraphPad PRISM v. 3.0, or an in-house function for non-linear, sigmoidal dose-response curve-fitting.
μ-Opioid Receptor Functional Data: μ GTP EC50 is the concentration of a compound providing 50% of the maximal response for the compound at a μ-opioid receptor.
μ GTP Emax (%) is the maximal effect elicited by a compound relative to the effect elicited by DAMGO, a standard μ agonist. Generally, the μ GTP Emax (%) value measures the efficacy of a compound to treat or prevent pain or other Conditions.
In TABLE 2, activity response of certain Compounds of the Invention to the μ-, δ- and κ-opioid receptors was determined as described above for functional assays using HEK-293 or CHO cells.

[2] = biological target: κ opioid receptor (Homo sapiens (Human), UniProt P41145); test: κ-opioid receptor radioligand ([3H]-U69,593) dose-displacement binding assay; conditions: binding affinity, read-out: Opioid Receptor Ki (nM) κ
Procedure: κ-Opioid Receptor Binding Assay Procedures: Membranes from recombinantHEK-293 cells, CHO or U-2 OS cells expressing the recombinant human κ opioid receptor (κ) were prepared by lysing cells in ice cold hypotonic buffer (2.5 mM MgCl2, 50 mM HEPES, pH 7.4) (10 mL/10 cm dish) followed by homogenization with a tissue grinder/Teflon pestle. Membranes were collected by centrifugation at 30,000×g for 15 min at 4° C. and pellets were resuspended in hypotonic buffer to a final concentration of 1-3 mg/mL. Protein concentrations were determined using the BioRad protein assay reagent with bovine serum albumen as standard. Aliquots of κ receptor membranes were stored at −80° C.
Radioligand dose displacement assays used 0.4 nM [^3H]-U69,593 (GE Healthcare, Piscataway, N.J.; 40 Ci/mmole) with 15 μg membrane protein (recombinant κ opioid receptor expressed in HEK 293 cells; in-house prep) in a final volume of 200 μl binding buffer (5% DMSO, 50 mM Trizma base, pH 7.4). Non-specific binding was determined in the presence of 10 μM unlabeled naloxone or U69,593. All reactions were performed in 96-well polypropylene plates for 1 hour at a temperature of about 25° C. Binding reactions were terminated by rapid filtration onto 96-well Unifilter GF/C filter plates (Perkin Elmer, Shelton, Conn.) presoaked in 0.5% polyethylenimine (Sigma). Harvesting was performed using a 96-well tissue harvester (Perkin Elmer, Shelton, Conn.) followed by five filtration washes with 200 μl ice-cold binding buffer. Filter plates were subsequently dried at 50° C. for 1-2 hours. Fifty μl/well scintillation cocktail (Perkin Elmer, Shelton, Conn.) was added and plates were counted in a Packard Top-Count for 1 min/well.
In TABLE 1, binding affinity of certain Compounds of the Invention to the μ-, δ- and κ-opioid receptors was determined as described above.

O=C1NC[C@@]2(CC[C@@]3(O)[C@H]4Cc5ccc(O)cc5[C@@]3(CCN4CC3CC3)C2)N1 [Compound 5, (4bR,4′S,8aS,9R)-11-(cyclopropylmethyl)-3,8a-dihydroxy-5,7,8,8a,9,10-hexahydrospiro[9,4b-(epiminoethano)phenanthrene-6,4′-imidazolidin]-2′-one]
EC50 [1]: > 20000 nM
Emax [1]: -1%
Ki [2]: 0.94 ± 0.18 nM

O=C1NC(=O)[C@@]2(CC[C@@]3(O)[C@H]4Cc5ccc(O)cc5[C@@]3(CCN4CC3CC3)C2)N1 [Compound 3, (4bR,4′S,8aS,9R)-11-(cyclopropylmethyl)-3,8a-dihydroxy-5,7,8,8a,9,10-hexahydrospiro[9,4b-(epiminoethano)phenanthrene-6,4′-imidazolidine]-2′,5′-dione]
EC50 [1]: > 20000 nM
Emax [1]: 10.6 ± 7.11%
Ki [2]: 0.6 ± 0.15 nM
